According to patent US20230081390A1, “INHIBITORS OF RAF KINASES” (Kinnate Biopharma Inc., priority 2019, published 2023):

Each molecule was assayed against human RAF1 (Homo sapiens, UniProt P04049) (assay: Protein kinase assay (33P-ATP filter binding), human RAF1, 10-dose IC50). Conditions: MEK1 (K97R) substrate 3 micromolar, ATP 10 micromolar, read-out: RAF-1 IC50.
Sequence of human RAF1 (P04049 whole entry): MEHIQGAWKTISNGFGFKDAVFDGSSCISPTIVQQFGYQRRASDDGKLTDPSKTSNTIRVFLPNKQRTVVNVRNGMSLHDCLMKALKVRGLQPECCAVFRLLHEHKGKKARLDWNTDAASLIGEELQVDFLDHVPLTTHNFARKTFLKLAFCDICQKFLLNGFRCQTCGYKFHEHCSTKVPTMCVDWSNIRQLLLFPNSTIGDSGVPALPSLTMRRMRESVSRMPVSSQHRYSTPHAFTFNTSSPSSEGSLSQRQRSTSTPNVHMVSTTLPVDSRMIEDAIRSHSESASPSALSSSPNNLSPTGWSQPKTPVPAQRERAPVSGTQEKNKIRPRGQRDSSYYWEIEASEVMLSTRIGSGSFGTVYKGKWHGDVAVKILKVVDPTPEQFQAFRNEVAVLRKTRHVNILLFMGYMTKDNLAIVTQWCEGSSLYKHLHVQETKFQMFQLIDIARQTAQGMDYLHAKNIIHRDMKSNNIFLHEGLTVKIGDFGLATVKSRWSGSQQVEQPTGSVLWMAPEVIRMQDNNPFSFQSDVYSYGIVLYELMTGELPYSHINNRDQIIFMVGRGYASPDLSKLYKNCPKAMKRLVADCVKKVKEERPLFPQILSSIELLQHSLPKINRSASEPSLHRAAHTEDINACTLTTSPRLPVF
Format: biochemical
In short: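 Radiometric filter-binding format: 10 µM ATP, 3 µM MEK1 (K97R) as substrate for human RAF1, 2 hr at room temperature in 20 mM HEPES pH 7.5 with 10 mM MgCl2. Compounds were dispensed acoustically from DMSO. IC50 came from percent kinase activity relative to vehicle over a 10-dose series.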
`Cc1ccc(NC(=O)N2CC[C@H](OC(F)(F)F)C2)cc1-c1cc(O[C@@H](C)CO)nc(N2CCOCC2)c1` [Example 151, (3S)-N-[3-(2-[[(2S)-1-hydroxypropan-2-yl]oxy]-6-(morpholin-4-yl)pyridin-4-yl)-4-methylphenyl]-3-(trifluoromethoxy)pyrrolidine-1-carboxamide] was tested, and the IC50 was < 10 nM. With `Cc1ccc(NC(=O)N2CC[C@H](OC(F)(F)F)C2)cc1-c1cc(OCC(C)(C)O)nc(N2CCOCC2)c1` [Example 154, (3S)-N-[3-[2-(2-hydroxy-2-methylpropoxy)-6-(morpholin-4-yl)pyridin-4-yl]-4-methylphenyl]-3-(trifluoromethoxy)pyrrolidine-1-carboxamide] the IC50 was < 10 nM. In the case of `Cc1ccc(NC(=O)N2CC[C@H](OC(F)(F)F)C2)cc1-c1cc(OC[C@@H](C)O)nc(N2CCOCC2)c1` [Example 155, (3S)-N-(3-[2-[(2R)-2-hydroxypropoxy]-6-(morpholin-4-yl)pyridin-4-yl]-4-methylphenyl)-3-(trifluoromethoxy)pyrrolidine-1-carboxamide], the IC50 is reported as < 10 nM. In the case of `Cc1ccc(NC(=O)N(C)c2cnn(C(F)(F)F)c2)cc1-c1cc(OC[C@@H](C)O)nc(N2CCOCC2)c1` [Example 156, 1-(3-[2-[(2R)-2-hydroxypropoxy]-6-(morpholin-4-yl)pyridin-4-yl]-4-methylphenyl)-3-methyl-3-[1-(trifluoromethyl)pyrazol-4-yl]urea], the IC50 is reported as < 10 nM. `Cc1ccc(NC(=O)N2CCC3(C2)CC(F)(F)C3)cc1-c1cc(OCCO)nc(N2CCOCC2)c1` [Example 167, 2,2-difluoro-N-(3-(2-(2-hydroxyethoxy)-6-morpholinopyridin-4-yl)-4-methylphenyl)-6-azaspiro[3.4]octane-6-carboxamide] was tested, and the IC50 was < 10 nM. In the case of `Cc1cc(F)c(NC(=O)N2CCS[C@H](C(F)(F)F)C2)cc1-c1cc(OCCO)nc(N2CCOCC2)c1` [Example 168, (S)-N-(2-fluoro-5-(2-(2-hydroxyethoxy)-6-morpholinopyridin-4-yl)-4-methylphenyl)-2-(trifluoromethyl)thiomorpholine-4-carboxamide], the IC50 is reported as < 10 nM. In the case of `Cc1cc(F)c(NC(=O)N2CCS[C@@H](C(F)(F)F)C2)cc1-c1cc(OCCO)nc(N2CCOCC2)c1` [Example 169, (R)-N-(2-fluoro-5-(2-(2-hydroxyethoxy)-6-morpholinopyridin-4-yl)-4-methylphenyl)-2-(trifluoromethyl)thiomorpholine-4-carboxamide], the IC50 is reported as < 10 nM. With `Cc1ccc(NC(=O)N2CC[C@H](OC(F)(F)F)C2)cc1-c1cc(OC(C)(C)CO)nc(N2CCOCC2)c1` [Example 170, (3S)-N-(3-[2-[(1-hydroxy-2-methylpropan-2-yl)oxy]-6-(morpholin-4-yl)pyridin-4-yl]-4-methylphenyl)-3-(trifluoromethoxy)pyrrolidine-1-carboxamide] the IC50 was < 10 nM. `Cc1ccc(NC(=O)N2CC=C(C(F)(F)F)C2)cc1-c1cc(O[C@H](C)[C@@H](C)O)nc(N2CCOCC2)c1` [Example 171, N-(3-(2-(((2R,3R)-3-hydroxybutan-2-yl)oxy)-6-morpholinopyridin-4-yl)-4-methylphenyl)-3-(trifluoromethyl)-2,5-dihydro-1H-pyrrole-1-carboxamide] was tested, and the IC50 was < 10 nM. In the case of `Cc1ccc(NC(=O)N2CC[C@H](OC(F)(F)F)C2)cc1-c1cc(O[C@H](C)[C@@H](C)O)nc(N2CCOCC2)c1` [Example 172, (S)-N-(3-(2-(((2R,3R)-3-hydroxybutan-2-yl)oxy)-6-morpholinopyridin-4-yl)-4-methylphenyl)-3-(trifluoromethoxy)pyrrolidine-1-carboxamide], the IC50 is reported as < 10 nM. For `Cc1ccc(NC(=O)n2ccc(C(C)(C)C)c2)cc1-c1cc(OCCO)nc(N2CCOCC2)c1` [Example 173, 3-(tert-butyl)-N-(3-(2-(2-hydroxyethoxy)-6-morpholinopyridin-4-yl)-4-methylphenyl)-1H-pyrrole-1-carboxamide], the IC50 was < 10 nM. For `Cc1ccc(NC(=O)N2CC[C@H](OC(F)F)C2)cc1-c1cc(O[C@H](C)[C@@H](C)O)nc(N2CCOCC2)c1` [Example 174, (S)-3-(difluoromethoxy)-N-(3-(2-(((2R,3R)-3-hydroxybutan-2-yl)oxy)-6-morpholinopyridin-4-yl)-4-methylphenyl)pyrrolidine-1-carboxamide], the IC50 was < 10 nM. `Cc1ccc(NC(=O)N2C[C@@H]3[C@H](C2)[C@H]3C(F)(F)F)cc1-c1cc(OCCO)nc(N2CCOCC2)c1` [Example 176, (1R,5S,6r)-N-(3-(2-(2-hydroxyethoxy)-6-morpholinopyridin-4-yl)-4-methylphenyl)-6-(trifluoromethyl)-3-azabicyclo[3.1.0]hexane-3-carboxamide] was tested, and the IC50 was < 10 nM. With `Cc1ccc(NC(=O)N2CCC(CC(F)(F)F)C2)cc1-c1cc(OC[C@@H](O)CO)nc(N2CCOCC2)c1` (stereo partly drawn) [Example 179, N-(3-(2-((S)-2,3-dihydroxypropoxy)-6-morpholinopyridin-4-yl)-4-methylphenyl)-3-(2,2,2-trifluoroethyl)pyrrolidine-1-carboxamide] the IC50 was < 10 nM. `Cc1ccc(NC(=O)N2CCC(CC(F)(F)F)C2)cc1-c1cc(OC[C@H](O)CO)nc(N2CCOCC2)c1` (stereo partly drawn) [Example 180, N-(3-(2-((R)-2,3-dihydroxypropoxy)-6-morpholinopyridin-4-yl)-4-methylphenyl)-3-(2,2,2-trifluoroethyl)pyrrolidine-1-carboxamide] was tested, and the IC50 was < 10 nM. For `Cc1cc(F)c(NC(=O)N2CC[C@@H](CC(F)(F)F)C2)cc1-c1cc(OC[C@@H](C)O)nc(N2CCOCC2)c1` [Example 181, (S)-N-(2-fluoro-5-(2-((R)-2-hydroxypropoxy)-6-morpholinopyridin-4-yl)-4-methylphenyl)-3-(2,2,2-trifluoroethyl)pyrrolidine-1-carboxamide], the IC50 was < 10 nM. In the case of `Cc1ccc(NC(=O)N2CCC(CC(F)(F)F)C2)cc1-c1cc(OC2CCOCC2)nc(N2CCOCC2)c1` (stereo not shown) [Example 187, N-(4-methyl-3-(2-morpholino-6-((tetrahydro-2H-pyran-4-yl)oxy)pyridin-4-yl)phenyl)-3-(2,2,2-trifluoroethyl)pyrrolidine-1-carboxamide], the IC50 is reported as < 10 nM. In the case of `Cc1ccc(NC(=O)N2CCC(CC(F)(F)F)C2)cc1-c1cc(O[C@H]2CCOC2)nc(N2CCOCC2)c1` (stereo partly drawn) [Example 188, N-(4-methyl-3-(2-morpholino-6-(((S)-tetrahydrofuran-3-yl)oxy)pyridin-4-yl)phenyl)-3-(2,2,2-trifluoroethyl)pyrrolidine-1-carboxamide], the IC50 is reported as < 10 nM. In the case of `Cc1ccc(NC(=O)N2CCC(CC(F)(F)F)C2)cc1-c1cc(OCCCO)nc(N2CCOCC2)c1` (stereo not shown) [Example 189, N-(3-(2-(3-hydroxypropoxy)-6-morpholinopyridin-4-yl)-4-methylphenyl)-3-(2,2,2-trifluoroethyl)pyrrolidine-1-carboxamide], the IC50 is reported as < 10 nM. With `Cc1ccc(NC(=O)N2CCC(CC(F)(F)F)C2)cc1-c1cc(OC2CCN(C)CC2)nc(N2CCOCC2)c1` (stereo not shown) [Example 190, N-(4-methyl-3-(2-((1-methylpiperidin-4-yl)oxy)-6-morpholinopyridin-4-yl)phenyl)-3-(2,2,2-trifluoroethyl)pyrrolidine-1-carboxamide] the IC50 was < 10 nM. `Cc1ccc(NC(=O)N2CCC(CC(F)(F)F)C2)cc1-c1cc(O[C@H]2CCN(C)C2)nc(N2CCOCC2)c1` (stereo partly drawn) [Example 195, N-(4-methyl-3-(2-(((S)-1-methylpyrrolidin-3-yl)oxy)-6-morpholinopyridin-4-yl)phenyl)-3-(2,2,2-trifluoroethyl)pyrrolidine-1-carboxamide] was tested, and the IC50 was < 10 nM. With `Cc1ccc(NC(=O)N2CCC(CC(F)(F)F)C2)cc1-c1cc(OCC(C)(C)CO)nc(N2CCOCC2)c1` (stereo not shown) [Example 196, N-(3-(2-(3-hydroxy-2,2-dimethylpropoxy)-6-morpholinopyridin-4-yl)-4-methylphenyl)-3-(2,2,2-trifluoroethyl)pyrrolidine-1-carboxamide] the IC50 was < 10 nM. `Cc1ccc(NC(=O)N2CCC(CC(F)(F)F)C2)cc1-c1cc(OCC(C)CO)nc(N2CCOCC2)c1` (stereo not shown) [Example 199, N-(3-(2-(3-hydroxy-2-methylpropoxy)-6-morpholinopyridin-4-yl)-4-methylphenyl)-3-(2,2,2-trifluoroethyl)pyrrolidine-1-carboxamide] was tested, and the IC50 was < 10 nM. `Cc1ccc(NC(=O)N2CCC(CC(F)(F)F)C2)cc1-c1cc(O[C@@H]2CCOC2)nc(N2CCOCC2)c1` (stereo partly drawn) [Example 200, N-(4-methyl-3-(2-morpholino-6-(((R)-tetrahydrofuran-3-yl)oxy)pyridin-4-yl)phenyl)-3-(2,2,2-trifluoroethyl)pyrrolidine-1-carboxamide] was tested, and the IC50 was < 10 nM. `Cc1ccc(NC(=O)N2CCC(CC(F)(F)F)C2)cc1-c1cc(O[C@H]2CCNC2)nc(N2CCOCC2)c1` (stereo partly drawn) [Example 201, N-(4-methyl-3-(2-morpholino-6-((S)-pyrrolidin-3-yloxy)pyridin-4-yl)phenyl)-3-(2,2,2,- trifluoroethyl)pyrrolidine-1-carboxamide] was tested, and the IC50 was < 10 nM. `Cc1ccc(NC(=O)N2CCC(CC(F)(F)F)C2)cc1-c1cc(O[C@@H]2CCN(C)C2)nc(N2CCOCC2)c1` (stereo partly drawn) [Example 202, N-(4-methyl-3-(2-(((R)-1-methylpyrrolidin-3-yl)oxy)-6-morpholinopyridin-4-yl)phenyl)-3-(2,2,2-trifluoroethyl)pyrrolidine-1-carboxamide] was tested, and the IC50 was < 10 nM. For `Cc1ccc(NC(=O)N2CCC(CC(F)(F)F)C2)cc1-c1cc(O[C@@H]2CCNC2)nc(N2CCOCC2)c1` (stereo partly drawn) [Example 203, N-(4-methyl-3-(2-morpholino-6-((R)-pyrrolidin-3-yloxy)pyridin-4-yl)phenyl)-3-(2,2,2-trifluoroethyl)pyrrolidine-1-carboxamide], the IC50 was < 10 nM. In the case of `Cc1ccc(NC(=O)N2CC[C@@H](CC(F)(F)F)C2)cc1-c1cc(OC2CNC2)nc(N2CCOCC2)c1` [Example 204, (S)-N-(3-(2-(azetidin-3-yloxy)-6-morpholinopyridin-4-yl)-4-methylphenyl)-3-(2,2,2-trifluoroethyl)pyrrolidine-1-carboxamide], the IC50 is reported as < 10 nM.
